Assay results from patent US20240327423A1, “A SERIES OF PYRROLE DERIVATIVES AND THEIR PREPARATION METHOD AND THERAPEUTIC USE” (SHENZHEN SUNGENING BIO-MEDICAL CO., LTD, priority 2020, published 2024).
Values after ≈ are worked out from the molar mass of the structure shown. Where two headings read alike, the source gives them in different places. Blank lines part the entries; values can stand above or below the compound they belong to.

What was measured:
[1] = Liver microsomal stability test, human; format: in vitro ADME; details: Human liver microsomes; for CLint scaled / half-life: 0.5 mg/mL protein, 37° C., NADPH
Method: (§1) • 1: Add 10 μL of working solutions of test product or reference product and 80 μL of microsomal working solution (liver microsomal protein concentration of 0.5 mg/mL) to wells of TO, T5, T10, T20, T30, T60, and NCF60, and only microsomal working solution is added to the Blank60 wells. Then the samples of Blank60, T10, T20, T30 and T60, except for TO and NCF60, are placed in a water bath set at 37° C. and incubate for approximately 10 mins; • 2: Add 300 μL of termination solution (acetonitrile solution containing 200 ng/mL tolbutamide and 200 ng/mL labetalol) to Sample TO, followed by 10 ul of NADPH regeneration system working solution; • 3: After incubation of Blank60, T5, T10, T20, T30 and T60 on incubation plates, add 10 μL of NADPH regeneration system working solution to each sample well to start the reaction, and 10 uL of 100 mM potassium phosphate buffer is add to the NCF60 sample wells; • 4: After incubation for appropriate times (e.g., 5, 10, 20, 30 and 60 mins), 300 μL of termination solution is add to each sample well of test product and reference product on Blank60, T5, T10, T20, T30, T60 and NCF60 plates, respectively, to terminate the reaction. • 5: All sample plates are shaken well and centrifuged at 4000 rpm for 20 min, take 100 μL of the supernatant of the test product or reference product, dilute in 300 μL of pure water for LC-MS/MS analysis, respectively. • 6: Data analysis, T½ and CLint(mic) (μL/min/mg) values are calculated based on the first-order elimination kinetics, and the equations of first-order elimination kinetics are: […]

[2] = tested on: Aspergillus fumigatus (ATCC MYA-4609/AF293/CBS 101355); assay: Measurement of minimum inhibitory concentration (MIC), AF293; format: cell-based
Method: New streaks are made with glycerol stock solution of the strains of Aspergillus fumigatus (ATCC MYA-4609/AF 293/CBS 101355) on Sabouraud's dextrose agar (SDA), incubate at 35° C. and a humidity of 40-70% for 72 hours. Other strains are processed as the same as AF293.
RPMI1640: one packet of RPMI1640 powder is dissolved in 1 L purified water and mixed well, add 0.165M MOPS, adjust the pH to 7.0, sterilize by filtration with 0.22 um membrane, and store at 4° C. for no more than 3 months.
Physiological saline: weigh 9 g of sodium chloride powder and dissolve in 1 L of purified water, and mixed well. Sterilize at 121° C. for 30 min, store at room temperature (RT) for no more than 1 week.
Dissolve the test compound and stock solution of one control compound with DMSO and obtain solutions at a concentration of 12.8 mg/mL
The maximum concentration of each compound is 0.8 mg/mL (e.g., 150 μL of dimethyl sulfoxide+10 uL of 12.8 mg/mL compound/control). Column 1 is filled with 40 μL of compound and columns 2 to 11 with 20 μL of dimethyl sulfoxide. Transfer 20 μL of compound from column 1 to column 2 to dilute the concentration. Repeat the above steps up to column 11 to give 2× serial dilutions.
2 μL of the above 2× serial dilutions are injected into each hole of the corresponding test plate using a multichannel pipette.
Drop 5 ml of saline on the Aspergillus fumigatus SDA plate. The spores were carefully wiped off from the surface of the plate with an L-shaped coating rod. Then the suspension is transferred into a sterile tube. After shaking, let the tube stand for 5 to 10 minutes. Count the number of spores in the upper suspension with a hemocytometer and check the purity. Adjust the inoculum concentration to 0.2-2.5×10^4 spores/mL.
Inject 198 μL of diluted inoculum into each holes of the corresponding test plate using a multichannel pipette.
Incubate at 35° C. for 48 hours.
To facilitate scoring of the presence or absence of growth on the wall, a magnifying glass is used. The tested 96-well microplates were photographed and the optical density at 530 nm is read with an enzyme marker (Tecan Spark).

[3] = Liver microsomal stability test, mouse; format: in vitro ADME; details: Mouse liver microsomes; for CLint scaled / half-life: 0.5 mg/mL protein, 37° C., NADPH
Method: as §1

[4] = Pharmacokinetic test in SD rats, single oral administration; format: in vivo; details: SD, rat, plasma, po, 10 mg/kg, single oral administration 10 mg/kg, test compound mixed with F901318, plasma; for AUC: read-out: AUC; for Cmax: read-out: Cmax; for Tmax: read-out: Tmax; for half-life: read-out: T½ (converted)
Method: Pharmacokinetic study is performed on SD rats receiving single oral administration of each test compound mixed with F901318 (10 mg/kg, 3 rats per group). Test compounds and F901318 are dissolved with […]+10% solutol+85% saline, vortexed for 1-2 mins and ultra-sonicated for 5-10 mins to form a colorless clear drug solution. The animals are fasted overnight before oral administration, and resumed feeding 4 hours after administration. After oral administration, pharmacokinetic samples are collected from orbital blood of SD rats at 0.083 h, 0.25 h, 0.5 h, 1 h, 2 h, 4 h, 6 h, 8 h, and 24 h, and three whole blood samples are collected at each time point in a volume of 0.2-0.3 mL. Blood samples are placed on ice immediately after collected, and the plasma is separated by centrifugation within 15 min (centrifugation conditions: 8000 rpm, 1 min, and at room temperature).
The collected plasma is stored at −20° C. prior to analysis. Transfer 20 μL of plasma sample into an 0.5 mL EP tube, add 200 μL of working internal standard solution (blank group is without internal standard, using the same volume of solvent instead), vortex and mix for 3 min centrifuge at 13500 rpm for 10 min, take 100 μL of supernatant and analyze with LC-MS/MS.

[5] = tested on: Aspergillus fumigatus (ATCC-204305); assay: Measurement of minimum inhibitory concentration (MIC), ATCC 204305; format: cell-based; details: Aspergillus fumigatus ATCC 204305, 35° C., 48 hours
Method: New streaks are made with glycerol stock solution of the strains of Aspergillus [NT] MYA-4609/AF 293/CBS 101355) on Sabouraud's dextrose agar (SDA), incubate at 35° C. and a humidity of 40-70% for 72 hours. Other strains are processed as the same as AF293. RPMI1640: one packet of RPMI1640 powder is dissolved in 1 L purified water and mixed well, add 0.165M MOPS, adjust the pH to 7.0, sterilize by filtration with 0.22 um membrane, and store at 4° C. for no more than 3 months. Physiological saline: weigh 9 g of sodium chloride powder and dissolve in 1 L of purified water, and mixed well. […] Dissolve the test compound and stock solution of one control compound with DMSO and obtain solutions at a concentration of 12.8 mg/mL The maximum concentration of each compound is 0.8 mg/mL (e.g., 150 μL of dimethyl sulfoxide+10 uL of 12.8 mg/mL compound/control). […] Repeat the above steps up to column 11 to give 2× serial dilutions. 2 μL of the above 2× serial dilutions are injected into each hole of the corresponding test plate using a multichannel pipette. Drop 5 ml of saline on the Aspergillus fumigatus SDA plate. The spores were carefully wiped off from the surface of the plate with an L-shaped coating rod. Then the suspension is transferred into a sterile tube. After shaking, let the tube stand for 5 to 10 minutes. Count the number of spores in the upper suspension with a hemocytometer and check the purity. Adjust the inoculum concentration to 0.2-2.5×10^4 spores/mL. Inject 198 μL of diluted inoculum into each holes of the corresponding test plate using a multichannel pipette. Incubate at 35° C. for 48 hours. […] To facilitate scoring of the presence or absence of growth on the wall, a magnifying glass is used. The tested 96-well microplates were photographed and the optical density at 530 nm is read with an enzyme marker (Tecan Spark).

[6] = CBS101355, Aspergillus fumigatus AF293, 35° C., 48 hours, RPMI1640, read-out: AF293: MIC

SMILES: Cc1cc(-c2ccccc2)c(C(=O)C(=O)Nc2ccc3c(c2)CC2CN(c4ncc(F)cn4)CCN32)n1C (stereo not drawn) [Example 1, 2-(1,5-dimethyl-3-phenyl-1H-pyrrol-2-yl)-N-(2-(5-fluoropyrimidin-2-yl)-1,2,3,4,10,10a-hexahydropyrazino[1,2-a]indol-8-yl)-2-oxoacetamide]
- CLint scaled [1]: 32.6 mL/min/kg
- half-life [1]: 38.3 min
- Remaining, (T = 60 min) [1]: 35.7%
- MIC [2, 6]: 0.03 µg/mL (≈ 0.0588 µM)
- CLint scaled [3]: 65.2 mL/min/kg
- half-life [3]: 38.3 min
- Remaining, (T = 60 min) [3]: 34.4%
- AUC [4]: 48300 ng·h/mL
- Cmax [4]: 3860 ng/mL
- Tmax [4]: 140 min
- half-life [4]: 389 min

SMILES: Cc1cc(-c2ccccc2)c(C(=O)C(=O)Nc2ccc3c(c2)OCC2CN(c4ncc(C(F)(F)F)cn4)CCN32)n1C (stereo not drawn) [Example 9]
- CLint scaled [1]: 52.9 mL/min/kg
- half-life [1]: 23.6 min
- Remaining, (T = 60 min) [1]: 16.5%
- MIC [2, 6]: 0.06 µg/mL (≈ 0.104 µM)
- CLint scaled [3]: 81.1 mL/min/kg
- half-life [3]: 30.7 min
- Remaining, (T = 60 min) [3]: 24.0%

SMILES: Cc1cc(-c2ccccc2)c(C(=O)C(=O)Nc2cc(F)c3c(c2)OC[C@H]2CN(c4ncc(F)cn4)CCN32)n1C [Example 25, (R)-2-(1,5-dimethyl-3-phenyl-1H-pyrrol-2-yl)-N-(10-fluoro-3-(5-fluoropyrimidin-2-yl)-1,2,3,4,4a,5-hexahydrobenzo[b]pyrazino[1,2-d] [1,4]oxazin-8-yl)-2-oxoacetamide]
- MIC ([2]; Aspergillus fumigatus, CBS101355, 48 h, read-out: AF293: MIC, Aspergillus fumigatus AF293, 35° C., 48 hours, RPMI1640): 0.06 µg/mL (≈ 0.11 µM)

SMILES: Cc1cc(-c2ccccc2)c(C(=O)C(=O)Nc2ccc3c(c2)COC[C@H]2CN(c4ncc(F)cn4)CCN32)n1C [Example 26]
- MIC [2, 6]: 0.03 µg/mL (≈ 0.0555 µM)

SMILES: Cc1cc(-c2ccccc2)c(C(=O)C(=O)Nc2ccc3c(c2)COC[C@@H]2CN(c4ncc(F)cn4)CCN32)n1C [Example 27]
- MIC [2, 6]: 0.03 µg/mL (≈ 0.0555 µM)

SMILES: Cc1cc(-c2ccccc2)c(C(=O)C(=O)Nc2ccc3c(c2)OC[C@H]2CN(c4ncncn4)CCN32)n1C [Example 28, (R)—N-(3-(1,3,5-triazin-2-yl)-1,2,3,4,4a,5-hexahydrobenzo[b]pyrazino[1,2-d] [1,4]oxazin-8-yl)-2-(1,5-dimethyl-3-phenyl-1H-pyrrol-2-yl)-2-oxoacetamide]
- MIC [2, 6]: 0.25 µg/mL (≈ 0.491 µM)

SMILES: Cc1cc(-c2ccccc2F)c(C(=O)C(=O)Nc2cnc3c(c2)OCC2CN(c4ncc(F)cn4)CCN32)n1C (stereo not drawn) [Example 40]
- ATCC 204305: MIC [5]: 0.06 µg/mL

Further lines, results first:

- AF293: MIC ([2]; Aspergillus fumigatus AF293, 35° C., 48 hours, RPMI1640): 1 µg/mL
SMILES: Cc1cc(-c2ccccc2)c(C(=O)C(=O)Nc2ccc3c(c2)CN(C)CC2CN(c4ncc(F)cn4)CCN32)n1C (stereo not drawn) [Example 31]

- MIC [2, 6]: 0.008 µg/mL (≈ 0.0147 µM)
- MIC ([5]; ATCC204305): 0.016 µg/mL (≈ 0.0294 µM)
- AUC [4]: 12800 ng·h/mL
- Cmax [4]: 1520 ng/mL
- Tmax [4]: 50 min
- half-life [4]: 297 min
SMILES: Cc1cc(-c2ccccc2F)c(C(=O)C(=O)Nc2ccc3c(c2)OC[C@H]2CN(c4ncc(F)cn4)CCN32)n1C [Example 35, (R)-2-(3-(2-fluorophenyl)-1,5-dimethyl-1H-pyrrol-2-yl)-N-(3-(5-fluoropyrimidin-2-yl)-1,2,3,4,4a, 5-hexahydrobenzo [b]pyrazino[1,2-d] [1,4]oxazin-8-yl)-2-oxoacetamide]

- MIC [2, 6]: 0.016 µg/mL (≈ 0.0294 µM)
SMILES: Cc1cc(-c2cccc(F)c2)c(C(=O)C(=O)Nc2ccc3c(c2)OC[C@H]2CN(c4ncc(F)cn4)CCN32)n1C [Example 36, (R)-2-(3-(3-fluorophenyl)-1,5-dimethyl-1H-pyrrol-2-yl)-N-(3-(5-fluoropyrimidin-2-yl)-1,2,3,4,4a,5-hexahydrobenzo[b]pyrazino[1,2-d] [1,4]oxazin-8-yl)-2-oxoacetamide]

- MIC [2, 6]: 0.016 µg/mL (≈ 0.0294 µM)
SMILES: Cc1cc(-c2ccc(F)cc2)c(C(=O)C(=O)Nc2ccc3c(c2)OC[C@H]2CN(c4ncc(F)cn4)CCN32)n1C [Example 37, (R)-2-(3-(4-fluorophenyl)-1,5-dimethyl-1H-pyrrol-2-yl)-N-(3-(5-fluoropyrimidin-2-yl)-1,2,3,4,4a,5-hexahydrobenzo[b]pyrazino[1,2-d] [1,4]oxazin-8-yl)-2-oxoacetamide]

- ATCC 204305: MIC [5]: 0.03 µg/mL
SMILES: Cc1cc(-c2ccccc2F)c(C(=O)C(=O)Nc2ccc3c(c2)COCC2CN(c4ncc(F)cn4)CCN32)n1C (stereo not drawn) [Example 39, 2-(3-(2-fluorophenyl)-1,5-dimethyl-1H-pyrrol-2-yl)-N-(3-(5-fluoropyrimidin-2-yl)-1,2,3,4,4a,5-hexahydro-7H-benzo[e]pyrazine[2,1-c] [1,4]oxazolin-9-yl)-2-oxoacetamide]
